Values joined by “and” are separate entries in the source; they are usually repeats but may differ in a detail not shown here. Equal values may be shown once. Read-outs that look alike come from different tables or passages of the source.
How the values were obtained:
HCT116-PHF5A^R38C = assay: CellTiter-Glo viability assay, HCT116-PHF5A^R38C; assay type: cell-based, human; details: for GI50: Homo sapiens, 72 h, read-out: HCT116-PHF5A^R38C GI50
Description: (§1) To further validate the pose of the compound, we analyzed the activity of several related chemical probes using the SPA with the purified protein complex ([Teng et al. 2017]). The SPA is formatted as a competition assay in which the purified protein complex is captured on a bead containing scintillant, incubated with test compounds over a dose response, and then competed off with a fixed concentration of ^3H-Plad compound. IC50 curves are then measured from the resulting light emitted from the bead (Table 1; Supplemental Fig. S4). In addition, we tested the probes in viability assays in two engineered cell lines: HCT116-PHF5A^WT and the sensitization line HCT116-PHF5A^R38C (Table 1; Supplemental Fig. S5). This facilitates profiling of chemical probe activity in the PHF5A background (wild type and mutant). The relative expression levels were further confirmed by Western blot analysis (Supplemental Fig. S5).
(§2) Parental HCT116 cells were obtained from American Type Culture Collection and cultured in RPMI 1640 medium supplemented with 10% fetal bovine serum. PHF5A R38C was generated using the Agilent QuikChange II kit and was cloned into pLenti6.3/V5 as described ([Teng et al. 2017]). The verified clone was used for lentivirus production using X293T cells. Parental HCT116 cells were infected with virus and selected with blasticidin S at 10 µg mL^−1 for 1 wk. Engineered cell lines were subsequently maintained in the absence of antibiotic. Transgene expression was confirmed by Western blot analysis (Supplemental Fig. S4). For Western blot analysis, α-PHF5A rabbit polyclonal antibody (Protein Tech, 15554-1-AP) was used at 1:1000 dilution in LI-COR buffer, and anti-rabbit secondary antibody (LI-COR) was used at 1:5000 dilution. The Western blot was imaged using an Odyssey V3.0 imager (LI-COR). For CellTiter-Glo analysis of the wild-type and PHF5A^R38C cell lines, 500 cells were seeded in each well of a 384-well plate 1 d before compound addition. Dose response was measured in 11-point serial dilutions with a top dose of 10 µM. The percentage of DMSO was controlled throughout, and a DMSO-only control was included. Seventy-two hours after dosing, CellTiter-Glo reagent was added, incubated, and assayed on an EnVision multilabel reader (PerkinElmer). Luminescence values from each treatment were normalized to the average value of the respective DMSO control. The dose response curve plots were generated in GraphPad Prism, and GI50 values were calculated from nonlinear regression analysis. GI50 values for the wild-type and R38C mutant cell lines were plotted in Spotfire.

[1] = molecular target: T1, wild-type mini-SF3b complex (4-protein SF3b complex) (Homo sapiens, UniProt O75533+Q7RTV0); assay: Scintillation proximity assay (SPA) competition with 3H-labeled pladienolide probe; assay type: binding; details: for activity after truncating the diene tail: assays of Table 1
T1 construct: SF3B1 was limited to the HEAT repeat domain from residues 454–1304 and cloned in-frame with an N-terminal Flag tag; Truncated SF3B1 and full-length SF3B3, PHF5A, and SF3B5 were synthesized; made in house; host or cells: SF21 insect cells (baculovirus, pFastBac1)
T1 sequence (Q7RTV0 whole entry, the tested form may be a part): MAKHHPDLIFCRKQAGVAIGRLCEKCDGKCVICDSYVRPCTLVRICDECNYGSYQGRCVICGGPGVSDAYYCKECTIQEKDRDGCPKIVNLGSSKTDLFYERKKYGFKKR
T1 sequence (Q15393 whole entry, further chain, the tested form may be a part): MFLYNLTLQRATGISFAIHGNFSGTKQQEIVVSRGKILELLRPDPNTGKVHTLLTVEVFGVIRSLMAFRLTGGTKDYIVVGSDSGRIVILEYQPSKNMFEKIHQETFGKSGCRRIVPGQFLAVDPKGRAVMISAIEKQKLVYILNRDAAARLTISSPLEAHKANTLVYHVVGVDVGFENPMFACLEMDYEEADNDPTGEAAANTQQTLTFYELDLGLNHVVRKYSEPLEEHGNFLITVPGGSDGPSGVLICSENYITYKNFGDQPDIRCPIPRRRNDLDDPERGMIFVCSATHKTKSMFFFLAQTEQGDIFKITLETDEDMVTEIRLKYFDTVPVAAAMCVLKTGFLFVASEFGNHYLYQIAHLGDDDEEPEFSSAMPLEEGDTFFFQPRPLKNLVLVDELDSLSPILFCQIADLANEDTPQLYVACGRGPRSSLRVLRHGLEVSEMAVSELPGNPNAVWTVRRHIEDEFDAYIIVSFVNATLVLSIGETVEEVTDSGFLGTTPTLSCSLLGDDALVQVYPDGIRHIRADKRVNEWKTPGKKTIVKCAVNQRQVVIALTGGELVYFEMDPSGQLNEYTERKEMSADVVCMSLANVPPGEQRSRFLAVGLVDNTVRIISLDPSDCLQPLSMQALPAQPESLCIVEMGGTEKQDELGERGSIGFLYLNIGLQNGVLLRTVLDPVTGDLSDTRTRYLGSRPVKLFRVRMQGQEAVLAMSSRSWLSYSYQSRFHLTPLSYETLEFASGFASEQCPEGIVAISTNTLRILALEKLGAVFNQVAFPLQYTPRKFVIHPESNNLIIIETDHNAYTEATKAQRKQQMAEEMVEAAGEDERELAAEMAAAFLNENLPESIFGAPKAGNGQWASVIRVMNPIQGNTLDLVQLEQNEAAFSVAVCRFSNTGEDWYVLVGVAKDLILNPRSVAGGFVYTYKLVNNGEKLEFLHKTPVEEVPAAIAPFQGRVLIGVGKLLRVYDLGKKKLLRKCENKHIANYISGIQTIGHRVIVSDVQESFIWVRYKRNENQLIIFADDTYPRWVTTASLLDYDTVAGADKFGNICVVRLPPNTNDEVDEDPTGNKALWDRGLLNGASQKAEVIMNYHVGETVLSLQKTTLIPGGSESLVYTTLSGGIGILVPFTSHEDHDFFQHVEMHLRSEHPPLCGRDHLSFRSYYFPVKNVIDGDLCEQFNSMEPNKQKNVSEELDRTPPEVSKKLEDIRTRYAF
T1 sequence (O75533 454-1304): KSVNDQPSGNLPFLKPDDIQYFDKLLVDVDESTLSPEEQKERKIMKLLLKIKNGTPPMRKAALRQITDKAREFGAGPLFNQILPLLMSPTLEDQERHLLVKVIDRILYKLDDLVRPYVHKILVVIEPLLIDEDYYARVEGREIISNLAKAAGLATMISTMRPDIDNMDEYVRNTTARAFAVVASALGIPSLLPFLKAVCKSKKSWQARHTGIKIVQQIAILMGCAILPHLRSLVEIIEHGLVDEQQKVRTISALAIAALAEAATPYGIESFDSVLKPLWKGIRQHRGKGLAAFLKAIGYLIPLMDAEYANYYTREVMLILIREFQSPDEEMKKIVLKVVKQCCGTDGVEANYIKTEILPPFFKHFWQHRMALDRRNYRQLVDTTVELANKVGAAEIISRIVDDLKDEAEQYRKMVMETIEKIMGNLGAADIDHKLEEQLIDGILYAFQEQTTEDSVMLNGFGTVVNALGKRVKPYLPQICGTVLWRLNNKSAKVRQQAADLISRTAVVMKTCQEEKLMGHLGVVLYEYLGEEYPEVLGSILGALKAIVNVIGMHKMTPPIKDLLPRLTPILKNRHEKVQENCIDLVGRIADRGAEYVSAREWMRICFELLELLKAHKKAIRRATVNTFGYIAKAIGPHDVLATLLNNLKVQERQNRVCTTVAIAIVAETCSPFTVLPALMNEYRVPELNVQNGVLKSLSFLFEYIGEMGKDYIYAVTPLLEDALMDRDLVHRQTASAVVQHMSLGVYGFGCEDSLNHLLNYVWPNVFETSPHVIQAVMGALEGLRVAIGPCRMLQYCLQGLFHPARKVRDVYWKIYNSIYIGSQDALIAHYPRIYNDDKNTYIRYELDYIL
T1 sequence (Q9BWJ5 whole entry, further chain, the tested form may be a part): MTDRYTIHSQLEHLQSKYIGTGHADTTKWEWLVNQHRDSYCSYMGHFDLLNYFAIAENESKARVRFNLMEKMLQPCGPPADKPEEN
Description: as §1
Batch immobilization of the anti-Flag antibody (Sigma) to the anti-mouse PVT SPA scintillation beads (PerkinElmer) was prepared as follows. For every 1.5 mg of beads, 10 µg of antibody was prepared in 150 µL of PBS. The antibody–bead mixture was incubated for 30 min at room temperature and centrifuged at 18,000g for 5 min. One-hundred-fifty microliters of PBS was used to resuspend every 1.5 mg of antibody–bead mixture. The aforementioned mini-SF3b complex was tested for ^3H-labeled pladienolide probe binding ([Kotake et al. 2007]). One-hundred microliters of binding reactions was prepared with […] of bead slurry and 0 or 50 nM protein in buffer (20 mM HEPES at pH 8, 200 mM KCl, 5% glycerol). The mixture was incubated for 30 min, and varying concentrations of ^3H-labeled pladienolide probe were added. The mixture was incubated for 30 min, and luminescence signals were read using a MicroBeta2 plate counter (PerkinElmer). Compound competition studies were performed with the wild-type mini-SF3b complex. One-hundred microliters of binding reactions was prepared with 50 µL of bead slurry, 25 nM protein in buffer, and compounds at varying concentrations. After 30 min of preincubation, 10 nM ^3H-labeled pladienolide probe was added. The reactions were incubated for 30 min, and luminescence signals were read.
The Scintillation proximity assay (SPA) competition assay with 10 nM 3H tracer for different Pladienolide analogs binding to the 4-protein SF3b complex. Error bars represent STD for 2 or more measurements. Red = E7107, Orange = PladD, Purple = PladF, Green = compound 2, red = compound 3, gray = compound 4, black = compound 5, blue = compound 6. […]

HCT116-PHF5A^WT = assay: CellTiter-Glo viability assay, HCT116-PHF5A^WT; assay type: cell-based, human; details: for GI50: Homo sapiens, 72 h, read-out: HCT116-PHF5A^WT GI50
Description: as §1, §2

[2] = tested on: splicing of Ad2.2 pre-mRNA substrate; assay: In vitro splicing (IVS) assay, Ad2.2 substrate, HeLa S3 nuclear extracts, RT-qPCR; assay type: biochemical, human; details: for IC50: Ad2.2 (weak) substrate; for inhibition of strong and weak IVS substrates: Ad2.1 and Ad2.2 substrates compared
Excerpt: (§3) A substrate competitive mechanism of action (MOA) would predict that weaker pre-mRNA substrates would be easier to inhibit than stronger substrates. To date, it has not been possible to evaluate substrate competition using traditional steady-state conditions because splicing reactions are thought to be single-turnover events in vitro, and therefore it is not possible to measure a KM for the pre-mRNA. […] Specifically, we engineered the strong in vitro splicing substrate Ad2.1 by enhancing the U2 snRNP base-pairing around the BPA found in the Ad2 substrate. We then engineered a weaker substrate, Ad2.2, by adding a decoy BPS lacking an extrahelical adenosine (Ad2.2) (Fig. 5A; Supplemental Vector NTI files; [Corrionero et al. 2011]). […] We then evaluated E7107 and several chemical probes to better understand their mechanism.
(§4) Figure 5. […] (A) Base-pairing logic for IVS substrates. (BPRS) Branch point recognition sequence in U2 snRNA; (BPS) the BPS in the pre-mRNA. The Ad2 gene BPS sequence (UACUUAU) was modified (UACUAAU) to strengthen the U2 base-pairing interactions flanking the BPA, leading to the Ad2.1 substrate (BPA in red). The Ad2.2 sequence has the same BPS as Ad2 but also contains a 5′ decoy BPS sequence (lacking an extrahelical adenine) that can base-pair with the BPRS. The decoy BPS and suboptimal BPS overlap, which gives U2 at least two possibilities for possible base pairing, as indicated. […] (B) RT-qPCR time-course data showing product formation over time. […] (C) Representative IC50 curves for compound 6 using the two different substrates (Ad2.1 and Ad2.2).
(§5) The Ad2-derived ([Pellizzoni et al. 1998]) sequence was cloned into the pGEM-3Z vector (Promega) using 5′ EcoRI and 3′ XbaI restriction sites. The Ad2 variant (Ad2.2) ([Seiler et al. 2018]) was cloned into pcDNA3.1(+) vector (Promega) using the same restriction sites. The plasmids were linearized using XbaI and used as DNA templates in the in vitro transcription reactions. The FtzΔi intron-less plasmid ([Luo and Reed 1999]) was linearized using EcoRI. All RNAs were in vitro transcribed and then purified using MegaScript T7 and MegaClear kits, respectively (Invitrogen). For splicing reactions used with the Ad2.2 substrate, […] reactions were prepared using 8 µg of nuclear extracts prepared from HeLa S3, a saturating excess of 2 ng of pre-mRNA substrate, 0.2 ng of FTZΔi, and varying concentrations of compounds or DMSO.

[3] = tested on: splicing of Ad2.1 pre-mRNA substrate; assay: In vitro splicing (IVS) assay, Ad2.1 substrate, HeLa S3 nuclear extracts, RT-qPCR; assay type: biochemical, human; details: Ad2.1 (strong) substrate
Excerpt: as §3, §4, §5

[4] = tested on: HCT116 cell lines overexpressing PHF5A WT and mutants; assay: Viability curves in HCT116 cell lines overexpressing PHF5A WT and mutants; assay type: cell-based, human
Description: Parental HCT116 cells were obtained from American Type Culture Collection and cultured in RPMI 1640 medium supplemented with 10% fetal bovine serum. […] Parental HCT116 cells were infected with virus and selected with blasticidin S at 10 µg mL^−1 for 1 wk. Engineered cell lines were subsequently maintained in the absence of antibiotic. Transgene expression was confirmed by Western blot analysis (Supplemental Fig. S4). For Western blot analysis, α-PHF5A rabbit polyclonal antibody (Protein Tech, 15554-1-AP) was used at 1:1000 dilution in LI-COR buffer, and anti-rabbit secondary antibody (LI-COR) was used at 1:5000 dilution. The Western blot was imaged using an Odyssey V3.0 imager (LI-COR). For CellTiter-Glo analysis of the wild-type and PHF5A^R38C cell lines, 500 cells were seeded in each well of a 384-well plate 1 d before compound addition. Dose response was measured in 11-point serial dilutions with a top dose of 10 µM. The percentage of DMSO was controlled throughout, and a DMSO-only control was included. Seventy-two hours after dosing, CellTiter-Glo reagent was added, incubated, and assayed on an EnVision multilabel reader (PerkinElmer). Luminescence values from each treatment were normalized to the average value of the respective DMSO control. The dose response curve plots were generated in GraphPad Prism, and GI50 values were calculated from nonlinear regression analysis. […]

[5] = competition with 10 nM 3H-labeled pladienolide probe, 25 nM protein, read-out: SPA IC50

| Compound | PHF5A^R38C sensitization phenotype (words) (HCT116-PHF5A^R38C; R38C vs wild type) | IC50 [1, 5] [nM] | GI50 (HCT116-PHF5A^WT; CellTiter-Glo) [nM] | GI50 (HCT116-PHF5A^R38C; CellTiter-Glo) [nM] | IC50 [2] | IC50 [3] | further results |
| --- | --- | --- | --- | --- | --- | --- | --- |
| CO[C@H]([C@@H](C)[C@H]1O[C@]1(C)C[C@H](C)/C=C/C=C(\C)[C@H]1O[C@@H](CC(=O)O)CC[C@@H]1C)[C@@H](C)O [herboxidiene] | not and did not exhibit this sensitization phenotype and lie near the line of unity | – | – | – | – | – | – |
| C/C(=C\CO)[C@H]1OC(=O)C[C@H](O)CC[C@@](C)(O)[C@@H](OC(=O)N2CCN(C3CCCCCC3)CC2)/C=C/[C@@H]1C [Compound 5] | – | > 4000 | > 400 | > 400 | 16000 nM | > 25 µM | activity after truncating the diene tail [1]: completely eliminates activity |
| C/C(=C\C=C\[C@@H](C)c1ccccn1)[C@H]1OC(=O)C[C@H](O)CC[C@@](C)(O)[C@@H](OC(=O)N2CCN(C3CCCCCC3)CC2)/C=C/[C@@H]1C [Compound 6] | – | 376 | 34 | 11 | 23 nM | > 25 µM | loss of potency relative to E7107 in the SPA ([1]; relative to E7107): sixfold; loss of potency relative to E7107 in viability assays (HCT116-PHF5A^WT): ~10 fold; inhibition of strong and weak IVS substrates [2]: inhibit only the weak substrate |
| C/C(=C\C(=O)O)[C@H]1OC(=O)C[C@H](O)CC[C@@](C)(O)[C@@H](OC(=O)N2CCN(C3CCCCCC3)CC2)/C=C/[C@@H]1C [Compound 4] | – | > 4000 | > 400 | > 400 | > 25000 nM | > 25 µM | activity after truncating the diene tail [1]: completely eliminates activity |
| CC(C)C[C@H](NC(=O)[C@H](Cc1ccccc1)NC(=O)c1cnccn1)B(O)O [bortezomib] | lie near the line of unity | – | – | – | – | – | killing of cell lines irrespective of PHF5A mutation status [4]: kills all of the cell lines at the same concentration |
| CCC(O)C(C)C1OC1CC(C)(O)C=CC=C(C)C1OC(=O)CC(O)CCC(C)(O)C(OC(C)=O)C=CC1C (centres unmarked) [Plad D] | – | – | – | – | – | – | IC50 [1]: 97 nM; activity in the SPA binding assay [1]: nearly equipotent to E7107; GI50 (HCT116-PHF5A^WT): 26 nM; PHF5A^R38C sensitization phenotype (words) (HCT116-PHF5A^R38C): did not observe this trend; GI50 (HCT116-PHF5A^R38C): 18 nM |
| CCC(O)C(C)C1OC1CC(C)(O)C=CC=C(C)C1OC(=O)CC(O)CCC(C)(O)C(OC(=O)N2CC[N+](C)(C3CCCCCC3)CC2)C=CC1C (centres unmarked) [Compound 1] | – | – | > 400 | > 400 | 184 nM and 177 nM | 0.177 µM and 0.184 µM | inhibition of strong and weak IVS substrates [2]: inhibit both the strong and weak substrates equally well |
| CCC(O)C(C)C1OC1CC(C)(O)C=CC=C(C)C1OC(=O)CC(OC(=O)C2CC2)CCC(C)(O)C(OC(=O)N2CCN(C3CCCCCC3)CC2)C=CC1C (centres unmarked) [Compound 3] | – | > 4000 | > 400 | 243 | 966 nM | > 25 µM | activity in the SPA binding assay ([1]; relative to E7107): total loss of activity |
| CO[C@]1(C)C[C@@]2(CO2)[C@H](O)[C@@H](/C=C/C(C)=C/C[C@@H]2O[C@H](C)[C@H](NC(=O)/C=C\[C@H](C)OC(C)=O)C[C@@H]2C)O1 [spliceostatin] | did not exhibit this sensitization phenotype | – | – | – | – | – | PHF5A^R38C sensitization phenotype (words) (HCT116-PHF5A^R38C; R38C vs wild type, listed as Spliceostatin): lie near the line of unity |
| pladienolide B [PladB] | did not observe this trend | – | – | – | – | – | – |
| CCC(O)C(C)C1OC1CC(C)(O)C=CC=C(C)C1OC(=O)CC(O)CCC(C)(O)C(O)C=CC1C (centres unmarked) [Plad F] | – | 1500 | > 400 | > 400 | 171 nM | > 25 µM | loss of potency relative to E7107 in the SPA ([1]; relative to E7107): 20 fold; loss of potency relative to E7107 in viability assays (HCT116-PHF5A^WT): > 200 fold; inhibition of strong and weak IVS substrates [2]: inhibit only the weak substrate |
| CCC(O)C(C)C1OC1CC(C)(O)C=CC=C(C)C1OC(=O)CC(O)CCC(C)(O)C(OC(=O)N2CC[N+](Cc3ccccc3)(C3CCCCCC3)CC2)C=CC1C (centres unmarked) [Compound 2] | – | 236 | – | – | – | – | GI50 (HCT116-PHF5A^WT): > 400 nM; GI50 (HCT116-PHF5A^R38C): 259 nM |

From article PMC5859971 (Genes & Development, 2018)
